Experimental data taken from ChEMBL document CHEMBL4043090 (Bioorg Med Chem, 2017).

Columns and labels:
[1] = Cytotoxicity against human MAGI-CCR5 cells assessed as reduction in cell viability after 48 hrs by MTS assay; format: cell-based; settings: read-out: TC50
[2] = system: Human immunodeficiency virus 1; assay: Antiviral activity against HIV-1 Bal infected in human MAGI-CCR5 cells assessed as reduction in viral infection after 48 hrs by fluorescence based beta-galactosidase reporter gene assay; format: functional, cell-based; settings: for IC50 / IC90: Human immunodeficiency virus 1, Bal, MAGI-CCR5, 48 h
[3] = Therapeutic index, ratio of TC50 for human MAGI-CCR5 cells to IC50 for HIV-1 Bal infected in MAGI-CCR5 cells
PBMC = assay: Antiviral activity against HIV-1 Bal infected in human PBMC by MTS assay; format: functional, cell-based
[4] = Cytotoxicity against human PBMC assessed as reduction in cell viability by MTS assay; format: cell-based; settings: read-out: TC50 (the source's name)
[5] = Therapeutic index, ratio of TC50 for human PBMC to IC50 for HIV-1 Bal infected in human PBMC
[6] = Therapeutic index, ratio of TC50 for human MAGI-CCR5 cells to IC50 for HIV-1 NL4-3 infected in MAGI-CCR5 cells
[7] = system: Human immunodeficiency virus 1; format: functional, cell-based; settings: Human immunodeficiency virus 1, A17, MAGI-CCR5, 48 h
[8] = system: Human immunodeficiency virus 1; assay: microbe, parasite or virus in culture; settings: Human immunodeficiency virus 1, NL4-3, MAGI-CCR5, 48 h
Description: Antiviral activity against wild type HIV-1 NL4-3 infected in human MAGI-CCR5 cells assessed as reduction in viral infection after 48 hrs by fluorescence based beta-galactosidase reporter gene assay

[9] = Metabolic stability in rat plasma assessed as compound remaining at 100 uM after 1 hr by LC/MS analysis; format: ADME, cell-free; settings: read-out: Stability
[10] = Metabolic stability in rat liver microsomes assessed as compound remaining at 4 uM preincubated for 5 mins followed by NADPH addition measured after 60 mins by LC/MS analysis; format: ADME, microsome; settings: read-out: Stability

Row | Compound | CC50 at 48 h [1] [nM] | Activity [2] | IC50 [2] [nM] | IC90 [2] [nM] | TI [3] | IC50 (PBMC) [nM] | IC90 (PBMC) [nM] | CC50 [4] [nM] | TI [5] | TI [6] | IC50 [7] [nM] | IC90 [7] [nM] | IC50 [8] [nM] | IC90 [8] [nM] | remaining at 1 h, 100 µM [9] [%] | remaining at 1 h, 4 µM [10] [%]
1 | CC1=C(c2nc(-c3ccc(C#N)cc3)cs2)C(c2ccc(C(F)(F)F)nc2)NC(=O)N1 (stereo not given) | > 100000 | Dose-dependent effect | 1100 | 7300 | 91 | 1200 | 4600 | > 100000 | 83 | >116 | > 100000 | > 100000 | 860 | 7700 |  | 
2 | CC1=C(c2nc(-c3ccc(C#N)cc3)cs2)C(c2ccc(Cl)nc2)NC(=O)N1 (stereo not given) | > 100000 | Dose-dependent effect | 480 | 2400 | 208 | 380 | 940 | > 100000 | 263 |  |  |  |  |  | 91.7 | 63.4
3 | CC1=C(c2nc(-c3ccc(C#N)cc3)cs2)C(c2cccc(O)c2)NC(=O)N1 (stereo not given) | 98000 | Dose-dependent effect | 440 | 2100 | 223 | 190 | 660 | 84000 | 442 |  |  |  |  |  | 88.5 | 52.4
4 | COc1ccc(C2NC(=O)NC(C)=C2c2nc(-c3ccc(C#N)cc3)cs2)cc1 (stereo not given) | 7000 | Dose-dependent effect | 80 | 370 | 88 | 120 | 300 | 76600 | 638 | 110 | 3400 | 24000 | 50 | 620 | 96 | 63.1
5 | CC1=C(c2nc(-c3ccc(C#N)cc3)cs2)C(c2ccc(Br)nc2)NC(=O)N1 (stereo not given) | > 100000 | Dose-dependent effect | 350 | 1400 | 286 | 210 | 570 | > 100000 | 476 | >200 | > 100000 | > 100000 | 500 | 3200 | 98.3 | 67.6
6 | CC1=C(c2nc(-c3ccc(C#N)cc3)cs2)C(c2ccc(O)cc2)NC(=O)N1 (stereo not given) | > 10000 | Dose-dependent effect | 40 | 520 | 250 | 40 | 120 | > 100000 | 2500 | 765 | 28000 | 95000 | 60 | 620 | 100 | 100
7 | COc1ccc(C2NC(=O)NC(C)=C2c2nc(-c3ccc(C#N)cc3)cs2)cn1 (stereo not given) | > 10000 | Dose-dependent effect | 100 | 580 | 100 | 120 | 430 | > 100000 | 833 | >313 | > 100000 | > 100000 | < 320 | 1900 | 100 | 69.4
8 | COc1cccc(C2NC(=O)NC(C)=C2c2nc(-c3ccc(C#N)cc3)cs2)c1 (stereo not given) | > 100000 | Dose-dependent effect | 380 | 1800 | 263 | 560 | 1600 | > 100000 | 179 |  |  |  |  |  |  | 
9 | COc1ccc(C2NC(=O)NC(C)=C2c2nc(-c3ccc(C#N)cc3)cs2)cc1O (stereo not given) | > 100000 | Dose-dependent effect | 380 | 37800 | 263 | 150 | 420 | > 100000 | 667 |  |  |  |  |  |  | 
10 | CC1=C(c2nc(-c3ccc(Cl)cc3)cs2)C(c2cccc(O)c2)NC(=O)N1 (stereo not given) | 55000 | Dose-dependent effect | 1900 | 11000 | 29 | 1300 | 4100 | 65000 | 50 |  |  |  |  |  |  | 
11 | CC1=C(c2nc(-c3ccc(C#N)cc3)cs2)C(c2cccnc2Cl)NC(=O)N1 (stereo not given) | > 100000 | Dose-dependent effect | 2200 | 85500 | 46 | 1500 | 8800 | > 100000 | 67 |  |  |  |  |  |  | 
12 | CC1=C(c2nc(-c3ccc(C#N)cc3)cs2)C(c2ccc(Cl)nc2Cl)NC(=O)N1 (stereo not given) | > 100000 | Dose-dependent effect | 860 | 5800 | 116 | 1900 | 5700 | 99100 | 52 |  |  |  |  |  |  | 
13 | CC1=C(c2nc(-c3ccc(C#N)cc3)cs2)C(c2cc3ccccc3[nH]2)NC(=O)N1 (stereo not given) | 50500 | Dose-dependent effect | 2100 | 10400 | 24 | 3500 | 10800 | 69800 | 20 |  |  |  |  |  |  | 
14 | CC1=C(c2nc(-c3ccc(F)cc3)cs2)C(c2cccc(O)c2)NC(=O)N1 (stereo not given) | 60000 | Dose-dependent effect | 3800 | 50000 | 16 | 8000 | 18000 | 58000 | 7.3 |  |  |  |  |  |  | 
15 | COc1cccc(C2NC(=O)NC(C)=C2c2nc(-c3ccc(C#N)cc3)cs2)n1 (stereo not given) | > 100000 | Dose-dependent effect | 1600 | 14400 | 63 | 1600 | 5900 | > 100000 | 63 |  |  |  |  |  |  | 
16 | CC1=C(c2nc(-c3ccc(C#N)cc3)cs2)C(c2ccc(Oc3ccccc3)cc2)NC(=O)N1 (stereo not given) | > 10000 | Dose-dependent effect | 120 | 620 | 83 | 530 | 1800 | > 100000 | 189 |  |  |  |  |  |  | 
17 | COc1ccc(-c2csc(C3=C(C)NC(=O)NC3c3cccc(O)c3)n2)cc1 (stereo not given) | > 100000 | Dose-dependent effect | 66000 | > 100000 | 1.5 | 30000 | 78000 | 91000 | 3 |  |  |  |  |  |  | 
